Source: the NIST ThermoML archive (doi:10.1016/j.jct.2019.03.035)
Numbers after ± are expanded uncertainties.

Assays:
[1] = refractive index (other wavelength) (dimensionless); conditions: 100 kPa, Liquid, Wavelength=632.8 nm, minimum deviation angle technique
[2] = refractive index (other wavelength) (dimensionless); xn = mol fraction of the nth substance listed; conditions: 288.62 K; 100 kPa; Liquid; Wavelength=632.8 nm; minimum deviation angle technique; x2 = 0

Row | refractive index ([1]; 285.47 K) | refractive index ([1]; 286.4 K) | refractive index ([1]; 287.49 K) | refractive index ([1]; 288.44 K) | refractive index ([1]; 288.62 K) | refractive index ([1]; 289.45 K) | refractive index ([1]; 290.7 K) | refractive index ([1]; 291.77 K) | refractive index ([1]; 292.66 K) | refractive index ([1]; 293.89 K) | refractive index ([1]; 285.51 K) | refractive index ([1]; 286.56 K) | refractive index ([1]; 287.57 K) | refractive index ([1]; 288.6 K) | refractive index ([1]; 289.75 K) | refractive index ([1]; 290.67 K) | refractive index ([1]; 291.68 K) | refractive index ([1]; 292.74 K) | refractive index ([1]; 293.98 K) | refractive index [2] | Compound
1 | 1.5293 ± 0.0003 | 1.5288 ± 0.0003 | 1.5283 ± 0.0003 | 1.5278 ± 0.0003 | 1.5277 ± 0.0003 | 1.5274 ± 0.0003 | 1.5268 ± 0.0003 | 1.5262 ± 0.0003 | 1.5258 ± 0.0003 | 1.5252 ± 0.0003 | – | – | – | – | – | – | – | – | – | – | N#Cc1ccccc1 [benzonitrile]
2 | – | – | – | – | 1.4128 ± 0.0003 | – | – | – | – | – | 1.4142 ± 0.0003 | 1.4137 ± 0.0003 | 1.4133 ± 0.0003 | 1.4128 ± 0.0003 | 1.4123 ± 0.0003 | 1.4119 ± 0.0003 | 1.4114 ± 0.0003 | 1.411 ± 0.0003 | 1.4104 ± 0.0003 | – | CCCCCCCCCC [decane]
3 | – | – | – | – | – | – | – | – | – | – | – | – | – | – | – | – | – | – | – | 1.4128 ± 0.0003 | CCCCCCCCCC [decane] + N#Cc1ccccc1
